Experimental data: article PMC3310374 (Bioconjugate Chemistry, 2012)

Tested on: PC-3 cells
Test: Flow cytometric analysis of hypoxic cell induction
Format: cell-based, human
Conditions: for Mean fluorescence (FITC antibody against pimonidazole adducts): 10 μM pimonidazole, 2 h

**Q.** What does the source list for `O=[N+]([O-])c1nccn1CC(O)CN1CCCCC1` (stereo not drawn) [pimonidazole]?
**A.** Increase in pimonidazole binding, hypoxic compared to normoxic (PC-3 cells, flow cytometry): fivefold increase; Mean fluorescence (FITC antibody against pimonidazole adducts) (hypoxic PC-3 cells (94.9% N2, 0.1% O2, 5% CO2)): 286; Mean fluorescence (FITC antibody against pimonidazole adducts) (normoxic PC-3 cells (95% air, 5% CO2)): 56.8
